Measurements as given in patent US20070224297A1, “Method for increasing content of physiologically active substance in ginseng” (priority 2006, published 2007).

Experiment: DPPH antioxidant (radical scavenging) test
Details: 1 mM; absorbance relative to control, 517 nm, 30 minutes
Protocol: In order to measure the antioxidant effect of the ginseng extract prepared by the method of the present invention, a DPPH (1,1-diphenyl-2-picrylhydrazyl) method was used. DPPH is a color-developed radical, and can be used to directly confirm the radical removing ability of the same. […] An absorbance was measured at 517 nm to determine the amount of the remaining DPPH. The blank of this test is distilled water or a solvent, and a control is an experimental group composed only of DPPH and distilled water without the sample. The antioxidant ability (Radical Scavenging activity: RSA) was determined by the following equation 1, compared with the absorbances of the controls, and the lowered ratios are shown in Table 2. RSA (%)=[Absorbance of Hydroxylate/Absorbance of Control]×100 [Equation 1]

O=C1O[C@H]([C@@H](O)CO)C(O)=C1O [Vitamin C]
RSA (%): 35%
